This is an account of results in patent US11479551B2, “MTA-cooperative PRMT5 inhibitors” (Mirati Therapeutics, Inc., priority 2019, dated 2022).

Each structure is given as a SMILES string. pIC50: −log10 of the molar value. Where two headings read alike, the source gives them in different places.

The target in the assay is PRMT5/MEP50 complex (Homo sapiens (Human), UniProt O14744). The assay can be described thus: PRMT5:MEP50 FlashPlate Assay (histone H4 peptide substrate, plus and minus MTA). It is filed as biochemical. Particulars: for IC50: IC50 + 2 μM MTA (nM), in the presence of 2 μM MTA; for pIC50: in the absence of MTA, read-out: IC50. The method, then: The PRMT5 inhibitory activity of compounds of the present invention was determined using either a PRMT5:MEP50 FlashPlate Assay (Reaction Biology Corporation) or a PRMT5:MEP50 HotSpot Assay (Reaction Biology Corporation).
PRMT5/MEP50 complex, sequence (O14744 2-637): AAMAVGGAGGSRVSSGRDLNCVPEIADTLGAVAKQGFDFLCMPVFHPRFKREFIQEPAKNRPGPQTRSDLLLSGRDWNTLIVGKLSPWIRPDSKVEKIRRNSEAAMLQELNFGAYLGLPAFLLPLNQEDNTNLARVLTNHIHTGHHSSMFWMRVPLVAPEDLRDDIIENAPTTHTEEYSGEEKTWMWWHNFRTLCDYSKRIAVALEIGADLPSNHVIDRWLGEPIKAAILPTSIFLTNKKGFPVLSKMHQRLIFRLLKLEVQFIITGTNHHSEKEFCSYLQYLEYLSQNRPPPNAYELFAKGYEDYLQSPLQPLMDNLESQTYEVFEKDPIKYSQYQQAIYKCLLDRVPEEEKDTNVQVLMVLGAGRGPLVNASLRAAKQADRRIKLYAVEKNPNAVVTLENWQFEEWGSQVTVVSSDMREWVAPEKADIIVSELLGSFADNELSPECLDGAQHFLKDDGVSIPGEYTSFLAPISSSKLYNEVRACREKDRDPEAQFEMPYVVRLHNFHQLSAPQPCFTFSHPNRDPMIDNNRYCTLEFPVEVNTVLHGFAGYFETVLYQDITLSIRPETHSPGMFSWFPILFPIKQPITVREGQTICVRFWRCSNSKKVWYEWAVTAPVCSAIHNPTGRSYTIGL
PRMT5/MEP50 complex, sequence (Q9BQA1 2-342 partner): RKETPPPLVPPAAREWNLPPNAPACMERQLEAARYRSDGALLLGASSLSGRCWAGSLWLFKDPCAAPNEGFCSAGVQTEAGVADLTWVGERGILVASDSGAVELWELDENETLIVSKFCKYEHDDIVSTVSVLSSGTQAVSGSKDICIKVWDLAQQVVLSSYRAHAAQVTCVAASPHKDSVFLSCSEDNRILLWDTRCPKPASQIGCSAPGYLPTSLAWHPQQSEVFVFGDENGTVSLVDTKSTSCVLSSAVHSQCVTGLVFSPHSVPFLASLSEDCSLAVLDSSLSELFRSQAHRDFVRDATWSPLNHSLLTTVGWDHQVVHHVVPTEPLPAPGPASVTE
1. PRMT5:MEP50 FlashPlate Assay

Broadly, the IC50 is the concentration needed to halve the response being measured. As usually defined, the pIC50 is the IC50 on a negative log10 scale, so that one unit is a factor of ten. Take `COCc1cncc(-c2ccc3c(=O)[nH]nc(CN)c3c2)c1` [Example 3-46, 4-(aminomethyl)-6-(5-(methoxymethyl)pyridin-3-yl)phthalazin-1(2H)-one]: the IC50 was determined as 570 nM and the pIC50 was 5.10.
Consider `N#Cc1cccc(Oc2cncc(-c3ccc4c(=O)[nH]nc(CN)c4c3)c2)c1` [Example 4-69, 3-((5-(4-(aminomethyl)-1-oxo-1,2-dihydrophthalazin-6-yl)pyridin-3-yl)oxy)benzonitrile], for which the IC50 was determined as 10 nM and the pIC50 is 6.20.
In the case of `NCc1n[nH]c(=O)c2ccc(-c3cncc(C(F)F)c3)cc12` [Example 3-36, 4-(aminomethyl)-6-(5-(difluoromethyl)pyridin-3-yl)phthalazin-1(2H)-one], the IC50 stood at 450 nM and the pIC50 was 5.04.
On the same counts, the results for `NCc1n[nH]c(=O)c2ccc(-c3cnsc3-c3ccccc3)cc12` [Example 4-54, 4-(aminomethyl)-6-(5-phenylisothiazol-4-yl)phthalazin-1(2H)-one] are 77 nM and 5.81.
Consider `NCc1n[nH]c(=O)c2ccc(-c3cncc(Oc4ccncc4)c3)cc12` [Example 7-1, 4-(aminomethyl)-6-(5-(pyridin-4-yloxy)pyridin-3-yl)phthalazin-1(2H)-one], for which the IC50 was found to be 490 nM and the pIC50 is 4.95.
Regarding `Cc1ccc(-c2c(-c3ccc4c(=O)[nH]nc(CN)c4c3)cnn2C)cc1` [Example 4-97, 4-(aminomethyl)-6-(1-methyl-5-(p-tolyl)-1H-pyrazol-4-yl)phthalazin-1(2H)-one], the IC50 came out at 1.6 nM and the pIC50 is 7.31.
For `NCc1n[nH]c(=O)c2ccc(-c3cnc[nH]3)cc12` [Example 3-31, 4-(aminomethyl)-6-(1H-imidazol-5-yl)phthalazin-1(2H)-one], in that order: 80000 nM and under 4.00.
Take `Cc1c(Cl)cncc1-c1ccc2c(=O)[nH]nc(CN)c2c1` [Example 3-56, 4-(aminomethyl)-6-(5-chloro-4-methylpyridin-3-yl)phthalazin-1(2H)-one]: the half-maximal inhibitory concentration (IC50) is 550 nM and the pIC50 is 4.94.
For `NCc1n[nH]c(=O)c2ccc(-c3cccnn3)cc12` [Example 4-1, 4-(aminomethyl)-6-(pyridazin-3-yl)phthalazin-1(2H)-one], in that order: 45000 nM and under 4.00.
With `NCc1n[nH]c(=O)c2ccc(-c3cnn4c3CN(Cc3ccccc3)CC4)cc12` [Example 4-79, 4-(aminomethyl)-6-(5-benzyl-4,5,6,7-tetrahydropyrazolo[1,5-a]pyrazin-3-yl)phthalazin-1(2H)-one], the half-inhibitory concentration (IC50) stood at 27 nM and the pIC50 was 6.03.
`CCCc1cncc(-c2ccc3c(=O)[nH]nc(CN)c3c2)c1` [Example 3-34, 4-(aminomethyl)-6-(5-propylpyridin-3-yl)phthalazin-1(2H)-one]: the IC50 was 73 nM and the pIC50 was 5.69.
Consider `COc1ccc(-c2cncc(-c3ccc4c(=O)[nH]nc(CN)c4c3)c2)c(C#N)c1` [Example 8-3, 2-(5-(4-(aminomethyl)-1-oxo-1,2-dihydrophthalazin-6-yl)pyridin-3-yl)-5-methoxybenzonitrile], for which the concentration for half-maximal inhibition (IC50) is 2.3 nM and the pIC50 was 6.63.
Regarding `NCc1n[nH]c(=O)c2ccc(-c3cnc4c(F)cccn34)cc12` [Example 4-22, 4-(aminomethyl)-6-(8-fluoroimidazo[1,2-a]pyridin-3-yl)phthalazin-1(2H)-one], the IC50 came to 370 nM and the pIC50 was 5.06.
On the same counts, the results for `NCc1n[nH]c(=O)c2ccc(-c3cnn4c3CN(C(=O)C3CCCCC3)CC4)cc12` [Example 4-88, 4-(aminomethyl)-6-(5-(cyclohexanecarbonyl)-4,5,6,7-tetrahydropyrazolo[1,5-a]pyrazin-3-yl)phthalazin-1(2H)-one] are 45 nM and 5.77.
For `NCc1n[nH]c(=O)c2cc(Nc3ccccc3)ccc12` [Example 6-3, 4-(aminomethyl)-7-anilino-2H-phthalazin-1-one], in that order: 9400 nM and under 4.00.
